One molecule from patent US9701667B2, “Coumarin-based fluorogenic agents and uses thereof for specific protein labelling” (UNIVERSITY OF OTTAWA, priority 2014, dated 2017) can be followed below.

“Also recorded” adds a separate entry of the source.

The target in data set [1] is T1, dC10α-actin (Homo sapiens, UniProt P60709).
T1 construct: expressed in transfected cells; host or cells: HEK 293T
Briefly: No-wash intracellular labelling of dC10α-actin in HEK 293T cells. The format is cell-based. The settings on record: 10 μM YC20, 45 min. As to the method:
(§1) The no-wash fluorogenic labelling reagent YC20 was used to label cellular proteins localized in different parts of living HEK 293T cells. Histone-H2B, localized in the nuclei, and actin, localized as filaments in the cytosol, were chosen as the test proteins. […] HEK293T cells were transfected to express histone H2B-dC10α or dC10α-actin and then labeled with YC20 for 45 min and directly imaged by fluorescent microscopy without any washing steps (FIG. 13; see, also, Chen, Y. et al., Angew. Chem. Int. Ed. Engl., 2014, 53, 13785-13788, the entire contents of which are hereby incorporated by reference).
(§2) Transfection and labelling were performed as follows: HEK 293T cells were plated into 60-mm dishes and grown in MEM supplemented with 10% FBS, 100 units/mL of penicillin and 100 μg/mL of streptomycin for 16 h before transfection. Cells were transiently transfected with plasmid DNA encoding for dC10α-actin or histone H2B-dC10α or with pcDNA3.1 (mock) using lipofectamine 2000 following manufacturer's instructions. Twenty-four or forty-eight hours after transfection, the cells were incubated with 10 μM YC20 (in Opti-MEM with 0.2% DMSO) for 45 min at 37° C. Cells were observed and imaged on a Nikon confocal microscope with a 25× objective. Images were taken and analyzed with NIS-Elements software.

The test system of data set [2] is MBP-dC10α. Briefly: Time-dependent fluorescence increase on reaction with test protein. The format is biochemical. The settings on record: MBP-dC10 versus GSH. On the procedure:
(§3) Reactivity was tested through the time-dependent fluorescence increase at 37° C. using Synergy H4 Hybrid Multi-Mode Microplate Reader with excitation and emission monochromators set to 9 nm bandpass. All reactions were prepared in 50 mM HEPES buffer (pH 7.4) with 5% DMSO. Solutions of MBP-dC10α or GSH were prepared in 96-well plates and labelling reagent (YCx) in DMSO was added immediately before recording. The final concentration of labelling reagent was 25 μM, the final concentration of MBP-dC10α was 25 μM and the final concentration of GSH was 50 μM or 1 mM in 50 mM HEPES buffer (pH 7.4) with 5% DMSO. Samples were excited at 440 nm and fluorescence intensity was followed at 485 nm as a function of time.

Data set [3] in a line: Time-dependent fluorescence increase on reaction with GSH. Particulars: 25 μM fluorogen, 1 mM GSH. On the procedure: as §3
Data set [4] deals with histone H2B-dC10α. Kind of data set: No-wash intracellular labelling of histone H2B-dC10α in HEK 293T cells. The settings on record: 10 μM YC20, 45 min. Type of data set: cell-based, human. As to the method:
as §1, §2

The subject of data set [5] is MBP-dC10α. Briefly: Fluorescence properties and fluorescence enhancement (FE) before/after labelling of model target protein. Type of data set: biochemical. On the procedure:
For experiments described herein, maltose-binding protein (MBP) was chosen as a highly-soluble test protein and the dC10α tag was fused to its C-terminus (MBP-dC10α) as described previously (Guy, J. et al., Mol. Biosyst. 2010, 6, 976-987).
Emission spectra and fluorescence intensity measurements were recorded at 37° C. with a Synergy H4 Hybrid Multi-Mode Microplate Reader with excitation and emission monochromators set at 9 nm bandpass. The mixture of 100 μM solution of fluorogen (YCx) and 100 μM MBP-dC10 in 50 mM HEPES buffer (pH 7.4) with 5% DMSO was incubated at 37° C. in the dark for 12 hours, after which the fluorescence emission spectrum of a dilution (25 μM final) in 50 mM HEPES buffer with 5% DMSO was recorded. The emission spectra of the corresponding labelling reagent in same solution without MBP-dC10α were also recorded. The ratio of fluorescence intensity at maximum emission gave the fluorescence enhancement (FE) ratio.

Data set [6] relates to histone H2B-dC10α. Kind of data set: Intracellular labelling of histone H2B-dC10α in HeLa cells. Type of data set: cell-based, human. The settings on record: 10 μM YC20, 10 minutes. As to the method:
HeLa cells were transfected with plasmid DNA encoding histone H2B-dC10α as described below and labelled with 10 μM YC20 for 10 minutes.
Transfection and labelling were performed as follows: HeLa cells were propagated for 2-3 weeks until the cells were stable and healthy for the transfection and labelling experiments. Cells were plated in 35 mm culture dishes (approx. 1.3×10^5 cells/plate in 2 mL of MEM or DMEM media) and incubated at 37° C. (5% CO2) for 12-16 h, after which they were transfected with the plasmid DNA encoding for the expression of histone H2B C-terminally tagged with dC10α, using 3-fold lipofectamine […] (H2B-dC10α and 6 μg of lipofectamine). For the transfections the media was changed from MEM/DMEM to OPTI-MEM and the transfection time was 45 min. The media was then changed back to MEM/DMEM and the cells were allowed to express protein for 48 h (37° C. and 5% CO2), after which the cells were treated with the corresponding fluorogen. For FlARe labelling, cells were treated with 10 μM of YC20 in 2 mL OPTI-MEM (containing 0.02% F127 and 0.2% DMSO) and incubated at 37° C. and 5% CO2 for 10 minutes.

Data set [7] has as its system HEK293T cells. Kind of data set: MTT cytotoxicity assay. The format is cell-based, human. The settings on record: 20 h incubation. On the procedure: 3-(4,5-Dimethylthiazol-2-yl)-2,5-diphenyl tetrazolium bromide (MTT) is a yellow tetrazolium salt and can be reduced to formazan crystals, which are insoluble in aqueous solutions, by active mitochondria in living cells. The resulting intracellular purple formazan can be dissolved in Triton X100, and therefore quantified by measuring absorption of the solution.
Cells were seeded in a 96-well plate and incubated with 100 μL of culture medium with different amounts of the fluorogen YCx for 16 h. No fluorogen was added to the positive control and no cells were plated in the negative control. Portions of 25 μL of MTT solution (5 mg in 1 mL of Hanks' balanced salt solution) were added to the wells and the cells were further incubated at 37° C. for 4 h. Solubilization solutions (100 μL) were then added and incubated in 96-well plates at room temperature in the dark overnight. The absorption of each well was measured using a plate reader at a wavelength of 570 nm with 690 nm as a reference. Cell viability was calculated according to the following equation: Cell viability=(Awith fluorogen−Anegative control)/(Apositive control−Anegative control).

For `CCN(CC)c1ccc2cc(C(=O)Nc3cc(N4C(=O)C=C(OC)C4=O)cc(N4C(=O)C=C(OC)C4=O)c3)c(=O)oc2c1` [YC20, N-(3,5-bis(3-methoxy-2,5-dioxo-2,5-dihydro-1H-pyrrol-1-yl)phenyl)-7-(diethylamino)-2-oxo-2H-chromene-3-carboxamide], the “fluorescence in pcDNA transfected (mock) cells” value in data set [1] (HEK 293T mock cells) is “negligible fluorescence”. In addition, the “labelling of dC10α-actin (cyan channel)” value in data set [1] (HEK 293T) is on record as “filament structures in the cytosol were clearly visible”. Moreover, the “selectivity of labelling target protein over GSH” value in data set [2] is reported as “most selective labelling reagent”. In addition, the “reaction with high concentration (large excess) of GSH” value in data set [3] was “extremely slow; also recorded: did not give any fluorescence signal”. For the same molecule, the “labelling of histone H2B-dC10α (cyan channel)” value in data set [4] is listed as “only the nuclei were fluorescently labeled”; in data set [6], “nuclei were strongly fluorescently labeled”. Besides, the “fluorescence intensity change (fluorescence enhancement)” value in data set [5] (after labelling with MBP-dC10, λex = 440 nm) is on record as 29 fold. In data set [5] (after reaction with MBP-dC10α), the “fluorescence after the labelling reaction” value is given as “strong fluorescence”. The “background (intrinsic) fluorescence before labelling / quenching” value in data set [5] (fluorogen without target protein) is listed as “negligible background fluorescence”. Further, in data set [7], the “cytotoxicity (cell viability, MTT)” value is on record as “neither showed any cytotoxicity up to 100 μM”.
